Like-named read-outs stand apart in the source and are kept apart here. Some results are limits rather than exact numbers.

The assay concerns the target T1, Akt1 (Homo sapiens, UniProt P31749).
T1 construct: made in house; host or cells: Sf9 insect cells (baculovirus, pBlueBacHis2B)
Description: Akt1 kinase assay (33P phosphorylation of biotinylated peptide, Flash plates). Format: biochemical. The note with it: for inhibition at 1.1 µg/mL: assayed at a concentration of 1.1 mcg/mL. An excerpt: The assay described below measures the phosphorylation of a biotinylated peptide by active recombinant Akt1 and other kinase isoforms. The biotinylated peptide contains a consensus sequence derived from Akt substrate Gsk3 (Glycogen synthase kinase 3). The ^33P-labeled peptide substrate was captured by streptavidin-coated Flash plates.
Active recombinant Akt1 was expressed in Sf9 insect cells and purified as described by Kumar et al., Biochim. Biophys. Acta. Jun. 15, 2001, 1526(3), 257-268. Biotinylated peptide of the sequence Bio-ahx-RPRAASF was purchased from Syn Pep (Dublin, Calif., USA).
Cloning and Expression of Human Akt1 Sf9 Cells
Human Akt1 cDNA was amplified from a marathon-ready human lung cDNA library (Clonetech) using nested oligo primers as described below. The first round of amplification was carried out using the following primers; Akt1F1 ([…]) and Akt1R1 (TCCATC […]) and for the second round amplification, the primers of the following sequence were used; Akt1F2 (GGATCCTCGG […]) and AKT1R2 (GGTACCATCGTC […]). The PCR product was subcloned into pCRScript plasmid as a BamHI/KpnI fragment and the sequence of the cDNA was confirmed by DNA sequencing. This plasmid was used as a template for reamplification of Akt1 using appropriate primers for subcloning into pBlueBaHis2B into BamH1/EcoRI sites to generate an in frame fusion to (His)6 tag and an anti-Xpress antibody epitope tag at the N-terminus. This construct was sequenced to verify the junction sequences and used for generating a recombinant baculovirus. Growth of the recombinant virus, amplification and determination of viral titer were carried out according to the instructions from the manufacturer (InVitrogen, CA).
Purification of Akt1 from Sf9 Cells
Viral stocks were used to infect large scale Sf9 cells at a multiplicity of infection (MOI) of 2.5. Cells were maintained at 27° C. for 60 h and okadaic acid was added to the cultures to a concentration of 50 nM. Cells were harvested 4 h hours later by centrifugation at 1200 rpm for 30 min followed by freezing at −80° C. until further use. All purification steps were carried out at 4° C. Whole cell pellets were suspended in buffer A (20 mM sodium phosphate buffer pH 7.8, 500 mM NaCl, 1 mM sodium vanadate, 5 mM sodium fluoride, 40 mM β-glycerophosphate, 10 mM imidazole and protease inhibitor cocktail) and lysed using a microfluidizer. The cell extract was centrifuged at 16,000×g for 10 min to remove the debris and directly loaded onto Ni-NTA Superflow resin using a FPLC pump operated at 1 ml/min. The column was washed once with buffer A, once with wash buffer B (20 mM sodium phosphate pH 6.0, 1 mM sodium vanadate, 5 mM sodium fluoride and protease cocktail) and once with wash buffer B containing 0.05% Tween-20 followed by washing with buffer A until OD260 returned to basal level. Proteins were eluted with buffer A containing 200 mM imidazole. Fractions were analyzed by electrophoresis on 10% denaturing polyacrylamide gels and fractions containing 85% pure protein band at 60 KDa were pooled and dialyzed against buffer C (20 mM Tris-HCl pH 7.5, 0.5 mM EDTA,-2 mM DTT, 145 mM NaCl, 0.1 mM sodium vanadate, 5 mM sodium fluoride, 10 mM, β-glycerophosphate and 20% glycerol). Purified protein was stored as aliquots at −80° C. Protein concentrations were determined using BCA protein assay reagent A (Catalog #23228). To examine the identity of the proteins, 2 μg of purified protein was electrophoresed on SDS-polyacrylamide gels and stained with coomassie blue dye or transferred to nitrocellulose membrane and probed with anti-Akt and anti-phospho-specific Akt antibodies using enhanced chemiluminescence (ECL) reagent according to the protocol described by the manufacturer (Amersham).
The kinase assay was performed in 96 well plates at room temperature. Assay solutions and plates were preincubated at room temperature for 5 min. […]

Where [1] appears, read: read-out: IC50 rating (AKT1 inhibition).
The mark [2] stands for this setting: read-out: IC50 (AKT1 inhibition).

T1 sequence (P31749 whole entry): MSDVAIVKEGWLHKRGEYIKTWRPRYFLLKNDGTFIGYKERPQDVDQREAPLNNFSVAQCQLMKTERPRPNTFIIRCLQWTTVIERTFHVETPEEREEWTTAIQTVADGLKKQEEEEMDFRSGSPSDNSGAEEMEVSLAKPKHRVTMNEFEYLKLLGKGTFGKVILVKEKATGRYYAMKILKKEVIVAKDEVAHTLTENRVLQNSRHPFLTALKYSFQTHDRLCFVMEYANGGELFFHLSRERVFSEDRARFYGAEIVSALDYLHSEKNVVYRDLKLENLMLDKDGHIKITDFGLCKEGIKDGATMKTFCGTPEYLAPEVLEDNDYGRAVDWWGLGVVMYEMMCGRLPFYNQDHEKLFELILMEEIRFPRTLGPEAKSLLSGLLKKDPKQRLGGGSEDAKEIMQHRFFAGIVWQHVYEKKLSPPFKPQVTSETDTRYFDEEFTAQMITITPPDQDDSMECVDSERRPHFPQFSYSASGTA

In the case of `Cc1n[nH]c2ccc(-c3nnc(N)c(N4CCNCC4)n3)cc12` [Compound 1, 6-amino-3-(3-methylindazol-5-yl)-5-(piperazin-1-yl)-[1,2,4]triazine], the IC50 under setting [1] lay in the range of 100 to 1000 nM.
`Cc1n[nH]c2ccc(-c3nnc(N)c(O)n3)cc12` [Compound 2]: under setting [1], the concentration for half-maximal inhibition (IC50) was above 1000 nM.
The compound `Cc1n[nH]c2ccc(-c3nnc(NCc4ccccc4)c(N4CCNCC4)n3)cc12` [Compound 3, 6-benzylamino-3-(3-methylindazol-5-yl)-5-(piperazin-1-yl)-[1,2,4]triazine] returned an inhibition at 1.1 µg/mL above 90%. Under setting [1], the IC50 was below 100 nM.
Consider `Cc1n[nH]c2ccc(-c3nnc(N(Cc4ccccc4)Cc4ccccc4)c(N4CCNCC4)n3)cc12` [Compound 4, 6-dibenzylamino-3-(3-methylindazol-5-yl)-5-(piperazin-1-yl)-[1,2,4]triazine], for which the IC50 under setting [1] is above 1000 nM.
In the case of `Cc1n[nH]c2ccc(-c3nnc(N)c(N4CCN[C@@H](Cc5ccccc5)C4)n3)cc12` [Compound 5, 6-amino-5-[(S)-3-benzylpiperazin-1-yl]-3-(3-methylindazol-5-yl)-[1,2,4]triazine], the inhibition at 1.1 µg/mL is above 90%. Besides, under setting [1], the IC50 was below 100 nM.
For `Cc1n[nH]c2ccc(-c3nnc(N)c(N4CCN[C@H](c5ccccc5)C4)n3)cc12` [Compound 6, 6-amino-3-(3-methylindazol-5-yl)-5-[(R)-3-phenylpiperazin-1-yl]-[1,2,4]triazine], the IC50 under setting [1] was in the range of 100 to 1000 nM.
Turning to `Cc1n[nH]c2ccc(-c3nnc(N)c(N4CCN[C@@H](C(C)C)C4)n3)cc12` [Compound 7, 6-amino-5-[(S)-3-isopropylpiperazin-1-yl]-3-(3-methylindazol-5-yl)-[1,2,4]triazine], the inhibition at 1.1 µg/mL is above 90%. In addition, under setting [1], the IC50 is below 100 nM.
In the same order, the values of `Cc1n[nH]c2ccc(-c3nnc(N)c(N4CCN[C@@H](CC(C)C)C4)n3)cc12` [Compound 8, 6-amino-5-[(S)-3-isobutylpiperazin-1-yl]-3-(3-methylindazol-5-yl)-[1,2,4]triazine] are above 90% and below 100 nM.
On to `Cc1n[nH]c2ccc(-c3nnc(N)c(N4CCN[C@H](C)C4)n3)cc12` [Compound 9, 6-amino-3-(3-methylindazol-5-yl)-5-[(R)-3-methylpiperazin-1-yl]-[1,2,4]triazine], for which the IC50 under setting [1] was above 1000 nM.
Take `Cc1n[nH]c2ccc(-c3nnc(N)c(N4CCCNCC4)n3)cc12` [Compound 10, 6-amino-5-([1,4]diazepan-1-yl)-3-(3-methylindazol-5-yl)-[1,2,4]triazine]: the inhibition at 1.1 µg/mL was above 90%. For the same compound, the concentration for half-maximal inhibition (IC50) under setting [1] fell in the range of 100 to 1000 nM.
On to `Cc1n[nH]c2ccc(-c3nnc(N)c(N4CC5CC4CN5)n3)cc12` (stereo not shown) [Compound 11, 6-amino-5-(2,5-diazabicyclo[2.2.1]hept-2-yl)-3-(3-methylindazol-5-yl)-[1,2,4]triazine], for which the IC50 under setting [1] is above 1000 nM.
In the case of `Cc1n[nH]c2ccc(-c3nncc(N4CCN[C@@H](Cc5ccccc5)C4)n3)cc12` [Compound 12, 3-(3-methylindazol-5-yl)-5-[(S)-3-benzylpiperazin-1-yl]-[1,2,4]triazine], the inhibition at 1.1 µg/mL was above 90%. For the same compound, under setting [2], the half-maximal inhibitory concentration (IC50) is 2.6 nM. In addition, the 50% inhibitory concentration (IC50) under setting [1] was below 100 nM.
The compound `Cc1n[nH]c2ccc(-c3nnc(Cl)c(N4CCN[C@@H](Cc5ccccc5)C4)n3)cc12` [Compound 13, 5-[(S)-3-benzylpiperazin-1-yl]-6-chloro-3-(3-methylindazol-5-yl)-[1,2,4]triazine] gave an inhibition at 1.1 µg/mL above 90%. For the same compound, the IC50 under setting [1] was below 100 nM.
With `Cc1n[nH]c2ccc(-c3nnc(N)c(N4CCN[C@@H](C)C4)n3)cc12` [Compound 14, 6-amino-3-(3-methylindazol-5-yl)-5-[(S)-3-methylpiperazin-1-yl]-[1,2,4]triazine], the IC50 under setting [1] is 100 to 1000 nM.
Regarding `Cc1n[nH]c2ccc(-c3nnc(NCc4ccccc4)c(N4CCN[C@@H](C)C4)n3)cc12` [Compound 15, 6-benzylamino-3-(3-methylindazol-5-yl)-5-[(S)-3-methylpiperazin-1-yl]-[1,2,4]triazine], under setting [1], the IC50 fell in the range of 100 to 1000 nM.
For the compound `Cc1n[nH]c2ccc(-c3nnc(NCc4ccccc4)c(N4CCN[C@@H](C(C)C)C4)n3)cc12` [Compound 16, 6-benzylamino-5-[(S)-3-isopropylpiperazin-1-yl]-3-(3-methylindazol-5-yl)-[1,2,4]triazine], the inhibition at 1.1 µg/mL was above 90%. In addition, the IC50 under setting [1] is below 100 nM.
As for `Cc1n[nH]c2ccc(-c3nnc(NCc4ccccc4)c(N4CCN[C@@H](CC(C)C)C4)n3)cc12` [Compound 17, 6-benzylamino-5-[(S)-3-isobutylpiperazin-1-yl]-3-(3-methylindazol-5-yl)-[1,2,4]triazine], the IC50 under setting [1] is above 1000 nM.
With `Cc1n[nH]c2ccc(-c3nnc(NCc4ccccc4)c(N4CCN[C@@H](Cc5ccccc5)C4)n3)cc12` [Compound 18, 6-Benzylamino-5-[(S)-3-benzylpiperazin-1-yl]-3-(3-methylindazol-5-yl)-[1,2,4]triazine], the 50% inhibitory concentration (IC50) under setting [1] is above 1000 nM.
Regarding `Cc1n[nH]c2ccc(-c3nncc(N4CCN[C@@H](C(C)C)C4)n3)cc12` [Compound 19, 5-[(S)-3-isopropylpiperazin-1-yl]-3-(3-methylindazol-5-yl)-[1,2,4]triazine], the IC50 under setting [1] is below 100 nM.
As to `Cc1n[nH]c2ccc(-c3nnc(Cl)c(N4CCN[C@@H](C(C)C)C4)n3)cc12` [Compound 20, 6-chloro-5-[(S)-3-isopropylpiperazin-1-yl]-3-(3-methylindazol-5-yl)-[1,2,4]triazine], the inhibition at 1.1 µg/mL is above 90%. For the same compound, the half-maximal inhibitory concentration (IC50) under setting [1] is below 100 nM.
Take `Cc1n[nH]c2ccc(-c3nncc(N4CCN[C@@H](Cc5c[nH]c6ccccc56)C4)n3)cc12` [Compound 21, 5-[(S)-3-(3-indolylmethyl)piperazin-1-yl]-3-(3-methylindazol-5-yl)-[1,2,4]triazine]: the 50% inhibitory concentration (IC50) under setting [1] lay in the range of 100 to 1000 nM.
Turning to `Cc1n[nH]c2ccc(-c3nnc(Cl)c(N4CCN[C@@H](Cc5c[nH]c6ccccc56)C4)n3)cc12` [Compound 22, 6-chloro-5-[(S)-3-(3-indolylmethyl)piperazin-1-yl]-3-(3-methylindazol-5-yl)-[1,2,4]triazine], the IC50 under setting [1] was above 1000 nM.
In turn, `Cc1n[nH]c2ccc(-c3nncc(N4CCN[C@@H](CC(C)C)C4)n3)cc12` [Compound 23, 5-[(S)-3-isobutylpiperazin-1-yl]-3-(3-methylindazol-5-yl)-[1,2,4]triazine] had an inhibition at 1.1 µg/mL above 90%. For the same compound, the half-maximal inhibitory concentration (IC50) under setting [2] stood at 5.4 nM. For the same compound, the 50% inhibitory concentration (IC50) under setting [1] was below 100 nM.
The compound `Cc1n[nH]c2ccc(-c3nnc(Cl)c(N4CCN[C@@H](CC(C)C)C4)n3)cc12` [Compound 24, 6-chloro-5-[(S)-3-isobutylpiperazin-1-yl]-3-(3-methylindazol-5-yl)-[1,2,4]triazine] came in with an inhibition at 1.1 µg/mL above 90%. Besides, the half-inhibitory concentration (IC50) under setting [1] was below 100 nM.
As for `Cc1n[nH]c2ccc(-c3nnc(Cl)c(N4CCN[C@@H](COCc5ccccc5)C4)n3)cc12` [Compound 25, 5-[(R)-3-(benzyloxymethyl)piperazin-1-yl]-6-chloro-3-(3-methylindazol-5-yl)-[1,2,4]triazine], the IC50 under setting [1] was above 1000 nM.
On to `Cc1n[nH]c2ccc(-c3nncc(N4CCN[C@@H](COCc5ccccc5)C4)n3)cc12` [Compound 26, 5-[(R)-3-(benzyloxymethyl)piperazin-1-yl]-3-(3-methylindazol-5-yl)-[1,2,4]triazine], for which the IC50 under setting [1] was above 1000 nM.
In the case of `Cc1n[nH]c2ccc(-c3nncc(N4CCN[C@@H](CO)C4)n3)cc12` [Compound 27], the IC50 under setting [1] was above 1000 nM.

A word on the IC50: it is the midpoint of a concentration-inhibition curve. As usually defined, the inhibition is the percentage by which the read-out fell short of the control.

These data come from patent US7528132B2, “Kinase inhibitors” (Schering Corporation, priority 2005, dated 2009).
